Like-named read-outs stand apart in the source and are kept apart here. Numbered stars: 1 amine (or outer) side, 2 acyl side, 3 side chain; on linkers, the order of the positions; unused ones are H or OH. Square brackets hold non-standard residues; d marks the D form. Peptide text beside a SMILES is read from it. * marks the point of attachment. X20 = O=C(CCCCCO[C@@H]1O[C@H](CO)[C@@H](O)[C@H](O)[C@H]1N[*:1])[*:2]; Cha = N[C@@H](CC1CCCCC1)C(=O)O; Phg = N[C@H](C(=O)O)c1ccccc1; Piperidide = C1CCN(*)CC1; X7 = O=C(CO*)OCc1ccccc1; PhAc = O=C(Cc1ccccc1)*; ODecyl = CCCCCCCCCCO*
Biological target: VLA-4 (Homo sapiens, UniProt P05556+P13612)
Sequence (P13612 34-1032): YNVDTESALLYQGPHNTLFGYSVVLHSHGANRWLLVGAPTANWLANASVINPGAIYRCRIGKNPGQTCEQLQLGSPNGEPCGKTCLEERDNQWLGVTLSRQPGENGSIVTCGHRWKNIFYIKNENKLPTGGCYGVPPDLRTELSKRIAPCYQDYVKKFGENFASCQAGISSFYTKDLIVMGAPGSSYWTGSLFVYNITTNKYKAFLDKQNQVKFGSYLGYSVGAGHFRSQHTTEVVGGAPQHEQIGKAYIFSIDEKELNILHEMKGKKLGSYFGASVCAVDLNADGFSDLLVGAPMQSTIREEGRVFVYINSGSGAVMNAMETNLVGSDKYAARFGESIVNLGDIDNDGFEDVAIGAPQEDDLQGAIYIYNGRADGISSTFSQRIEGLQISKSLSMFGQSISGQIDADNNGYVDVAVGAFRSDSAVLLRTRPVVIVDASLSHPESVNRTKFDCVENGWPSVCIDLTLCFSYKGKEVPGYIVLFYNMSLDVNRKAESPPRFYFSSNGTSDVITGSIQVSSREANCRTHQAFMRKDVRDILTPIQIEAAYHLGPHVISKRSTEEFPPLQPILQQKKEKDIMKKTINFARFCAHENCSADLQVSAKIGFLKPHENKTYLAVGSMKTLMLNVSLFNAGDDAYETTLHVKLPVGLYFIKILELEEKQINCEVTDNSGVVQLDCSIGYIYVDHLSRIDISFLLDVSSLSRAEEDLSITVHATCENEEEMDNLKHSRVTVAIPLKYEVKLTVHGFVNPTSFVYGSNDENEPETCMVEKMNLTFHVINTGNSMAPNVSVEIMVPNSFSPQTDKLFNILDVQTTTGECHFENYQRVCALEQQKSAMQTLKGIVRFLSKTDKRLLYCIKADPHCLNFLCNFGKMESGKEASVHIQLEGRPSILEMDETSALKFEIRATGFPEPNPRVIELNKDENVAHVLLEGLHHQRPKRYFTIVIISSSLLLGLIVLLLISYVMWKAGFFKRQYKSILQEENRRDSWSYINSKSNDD
Sequence (P05556 21-798): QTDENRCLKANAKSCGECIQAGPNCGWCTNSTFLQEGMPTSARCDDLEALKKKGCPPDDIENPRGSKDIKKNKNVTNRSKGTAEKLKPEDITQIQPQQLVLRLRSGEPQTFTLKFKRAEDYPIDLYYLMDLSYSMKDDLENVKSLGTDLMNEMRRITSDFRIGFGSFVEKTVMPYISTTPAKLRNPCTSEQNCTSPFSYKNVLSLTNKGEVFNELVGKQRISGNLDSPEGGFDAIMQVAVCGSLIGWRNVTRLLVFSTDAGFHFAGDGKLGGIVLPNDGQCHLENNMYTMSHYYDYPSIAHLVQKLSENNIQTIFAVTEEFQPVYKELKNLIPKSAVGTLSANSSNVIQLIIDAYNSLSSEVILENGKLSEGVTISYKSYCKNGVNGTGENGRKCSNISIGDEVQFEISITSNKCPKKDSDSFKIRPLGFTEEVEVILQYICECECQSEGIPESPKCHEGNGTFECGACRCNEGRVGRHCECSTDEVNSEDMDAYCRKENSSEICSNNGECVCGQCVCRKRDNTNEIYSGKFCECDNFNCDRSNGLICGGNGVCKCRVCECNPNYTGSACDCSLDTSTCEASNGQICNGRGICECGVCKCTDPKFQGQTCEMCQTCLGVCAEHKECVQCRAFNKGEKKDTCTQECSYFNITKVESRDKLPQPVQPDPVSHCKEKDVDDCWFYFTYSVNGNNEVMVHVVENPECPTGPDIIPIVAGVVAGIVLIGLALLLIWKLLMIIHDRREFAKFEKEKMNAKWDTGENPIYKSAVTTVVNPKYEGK
Experiment: In vitro binding inhibition of 51Cr-labeled Jurkat cells to solid phase-bound CS-1 compound (SEQ ID NO:1)
Format: cell-based
Design: inflammatory cells that contain the VLA-4 receptor [Jurkat cells; host or cells: Jurkat (human T lymphoblastic line)
Details: for Relative Potency (prodrug compound): relative to SEQ ID NO:3 = 1, potency before the prodrug compound is enzymatically converted to an active form
Procedure: Binding inhibition is measured here as a concentration of compound that inhibits one-half the binding between a standard number of Jurkat cells and a standard amount of CS-1 compound bound to the surface of a microtiter plate well. Those concentrations are conveniently expressed as IC50 values, smaller numbers indicating a lower concentration required to inhibit 50 percent binding and therefore greater potency. Further specifics of this assay are provided hereinafter.
Jurkat cells (ATCC TIB 152), a human T lymphoblastic line, labeled with ^51 chromium were used to assay in vitro binding inhibition provided by various compounds discussed herein.
The plates were prepared as follows: The 25-mer CS-1 compound (SEQ ID NO:1) dissolved at 0.5-1 μg/ml in a buffer of 0.1M NaHCO3 at pH 9.5 that also contained 10 μg/ml of bovine serum albumin (BSA) or a conjugate of the CS-1 compound linked to […] (CS-1-OVA) dissolved at 1-2.5 μg/ml in the same buffer was used as the substrate. Each well of the microtiter plates was coated with 50 μl of substrate or buffer alone for controls. The wells were permitted to dry out completely and were then rinsed twice with PBS at pH 7.4. Non-specific binding sites of each well were then blocked using 200 μl per well of RPMI/1 percent BSA for two hours at room temperature.
Jurkat cells (3-5×10^6 cells) were placed into a 15 ml Falcon™ round-bottom tube with a cap. The tube was centrifuged, and the extra medium was then removed.
Two hundred microliters of a ^51 Cr labeling solution were added to the centrifuged cells and maintained in contact with the cells for 90-120 minutes in a warm room. […] Longer contact times provide a greater amount of labeling but lower cell viability.
The labeled cells are washed with (i) complete medium, (ii) 1 mM EDTA/PBS and then (iii) RPM1/1 percent BSA free of serum components. The cells are centrifuged after each washing. The cells are finally resuspended in serum-free RPMI/1 percent BSA at a concentration of 1×10^6 viable cells/ml, which provides a concentration that is diluted by one-half in the assay.
Inhibitor compounds are prepared as stock solutions at 20 mg/ml in DMSO in 1.5 ml cryogenic screwcap vials, and were stored at -70° C. Using Flow™ round-bottom or V-bottom microtiter plates, the inhibitor compounds were prepared at twice the assay concentration in RPMI/1 percent BSA at 60 μl/well.
Four initial dilutions were typically used.
The ^51 Cr-labeled cells ([…] at 60 μl/well) were then admixed with the diluted compound solutions. The admixtures were maintained at room temperature (about 22° C.) for 30 minutes.
One hundred microliters of each inhibitor compound/cell admixture were transferred to the substrate-coated wells. This was done in triplicate for each dilution. The resulting plates were incubated for 30 minutes at 37° C. and then washed gently three times with RPMI/1 percent BSA at 200 μl/well. Binding was observed microscopically, particularly after the second wash.
The bound cells were then lysed by the addition of a 0.5 percent solution of sodium dodecylsulfate in water at 100 μl/well. The resulting solutions were then processed for counting and calculation of IC50 values following usual procedures.
The data of Table 1 are normalized to the binding of SEQ ID NO: 3. […] Multiple assays for the same compound were averaged.

[1] = binding inhibition potency relative to standard compound of SEQ ID NO:3 = 1 (normalized IC50), about one-tenth or less assigned zero

`CC(=O)N[C@H]1[C@H](OCCCCCC(=O)N[C@@H](Cc2ccccc2)C(=O)N[C@@H](CC(C)C)C(=O)N[C@@H](CC(=O)O)C(=O)N[C@@H](Cc2ccccc2)C(=O)N2CCCCC2)O[C@H](CO)[C@@H](O)[C@@H]1O` [1063.01] (Ac-[X20]FLDF-Piperidide) was tested, and the “Relative Potency” value was 40.7.

For `CC(C)C[C@H](NC(=O)Cc1ccccc1)C(=O)N[C@@H](CC(=O)O)C(=O)N[C@H](C(=O)N1CCC[C@@H]1C(N)=O)c1ccccc1` [896.69] (PhAc-LD[Phg][dP]-NH2), the “Relative Potency” value [1] was 61.

`CC(=O)N[C@@H](CC(C)C)C(=O)N[C@@H](CC(=O)O)C(=O)N[C@H](C(N)=O)C(C)C` [926.30] (Ac-Leu-Asp-Val-NH2) was tested, and the “Relative Potency” value [1] was “.63”.

In the case of `CCCCCCCCCCOC(=O)C[C@H](NC(=O)[C@H](CC(C)C)NC(=O)Cc1ccccc1)C(=O)N[C@@H](Cc1ccccc1)C(=O)N1CCC[C@@H]1C(N)=O` [1068.09] (PhAc-LD(ODecyl)F[dP]-NH2), the “Relative Potency (prodrug compound)” value is reported as 0.

`CC(C)C[C@H](NC(=O)Cc1ccccc1)C(=O)N[C@@H](CC(=O)O)C(=O)NC1Cc2ccccc2NC1=O` (stereo partly shown) [997.08] was tested, and the “Relative Potency” value [1] was 23.5.

In the case of `CC(C)C[C@H](NC(=O)Cc1ccccc1)C(=O)N[C@@H](CC(=O)O)C(=O)N[C@@H](Cc1ccccc1)C(=O)N1CCC[C@H]1CO` [951.17], the “Relative Potency” value [1] is reported as 163.

In the case of `CC[C@H](C)[C@H](N)C(=O)N[C@@H](CC(C)C)C(=O)N[C@@H](CC(=O)O)C(=O)N[C@@H](CCSC)C(=O)N1CCC[C@H]1C(N)=O` [926.13] (H-ILDMP-NH2), the “Relative Potency” value is reported as “.3”.

For `O=C(O)C[C@H](NC1CCN(C(=O)Cc2ccccc2)CC1)C(=O)N[C@@H](Cc1ccccc1)C(=O)N1CCCC1` [992.01], the “Relative Potency” value [1] was 0.

For `CC(C)C[C@H](N)C(=O)N[C@@H](CC(=O)O)C(=O)N[C@H](C(N)=O)C(C)C` [926.29] (H-Leu-Asp-Val-NH2), the “Relative Potency” value was 0.01.

For `CC[C@H](C)[C@H](N)C(=O)N[C@@H](CC(C)C)C(=O)N[C@@H](CC(=O)O)C(=O)N[C@@H](CC1CCCCC1)C(=O)N1CCC[C@H]1C(N)=O` [926.14] (H-ILD[Cha]P-NH2), the “Relative Potency” value was “.13”.

For `CC(=O)[C@H]1C[C@@H](CC(=O)N[C@@H](CC(=O)O)C(=O)N[C@@H](Cc2ccccc2)C(=O)N2CCC[C@@H]2C(N)=O)C1(C)C` [1056.03], the “Relative Potency” value was 0.

For `NC(=O)[C@H]1CCCN1C(=O)[C@H](Cc1ccccc1)NC(=O)[C@H](CC(=O)O)NC(=O)c1cc2cc(O)ccc2cc1O` [1056.05], the “Relative Potency” value was 0.

`CC(C)C[C@H](NC(=O)Cc1ccccc1)C(=O)N[C@@H](CC(=O)OCC(=O)OCc1ccccc1)C(=O)N[C@@H](Cc1ccccc1)C(=O)N1CCC[C@@H]1C(N)=O` [1067.01] (PhAc-LD(X7)F[dP]-NH2) was tested, and the “Relative Potency (prodrug compound)” value was “.97”.

With `CC(C)C[C@@H](CN[C@@H](CC(=O)O)C(=O)N[C@@H](Cc1ccccc1)C(=O)N1CCCCC1)NC(=O)Cc1ccccc1` [1041.01] the “Relative Potency” value [1] was 0.

`NC(=O)[C@H]1CCCN1C(=O)[C@H](Cc1ccccc1)NC(=O)[C@H](CC(=O)O)NC(=O)CCCCC1CCCCC1` [1056.08] was tested, and the “Relative Potency” value was 0.

`CC(C)C[C@H](NC(=O)Cc1ccccc1)C(=O)NC(CC(=O)O)(CC(=O)O)C(=O)N[C@@H](Cc1ccccc1)C(=O)N1CCCCC1` [1026.01] was tested, and the “Relative Potency” value [1] was 0.

For `CC(C)C[C@H](NC(=O)Cc1ccccc1)C(=O)N[C@@H](CC(=O)O)C(=O)N[C@@H](Cc1ccccc1)C(=O)N1CCN(CC(N)=O)CC1` [1111.09], the “Relative Potency” value [1] was 324.

`O=C(O)C[C@H](NC(=O)N(Cc1ccccc1)Cc1ccccc1)C(=O)N[C@@H](Cc1ccccc1)C(=O)N1CCCCC1` [1027.03] was tested, and the “Relative Potency” value was 0.

In the case of `CC(=O)N[C@@H](Cc1ccccc1)C(=O)N[C@@H](CC(C)C)C(=O)N[C@@H](CC(=O)O)C(=O)N[C@@H](Cc1ccccc1)C(=O)N1CCC[C@@H]1C(N)=O` [951.42] (Ac-FLDF[dP]-NH2), the “Relative Potency” value is reported as 35.4.

Reference: patent US5770573A, “CS-1 peptidomimetics, compositions and methods of using the same” (Cytel Corporation, priority 1995, dated 1998)
